# Assay results reported in patent US20220281848A1, “PYRAZOLE-SUBSTITUTED PYRROLIDINONES AS HERBICIDES” (FMC Corporation, priority 2019, published 2022).
# Test system: plants
# Assay: Test D pre-emergence, other plants of Tables D1 and D3
# Format: in vivo
# Settings: pre-emergence, 100=total damage, 0=no damage
# Experimental: A formulation containing 50 g/L of the test chemical was prepared by dissolving the active ingredient in a mixture of organic solvents and emulsifier, details of which are provided in the table. This formulation was then mixed with a small, variable amount of acetone to aid dissolution, before addition of a 0.2% v/v aqueous solution of an adjuvant, as the aqueous diluent, to form an aqueous spray solution which contains a predetermined concentration of the active ingredient.
# This aqueous spray solution was then sprayed onto plants including maize and wheat that had been seed treated with a herbicide safener, after one day's cultivation (for pre-emergence) or after about 12 days' cultivation (for post-emergence). The plants were grown from seeds sown in standard soil, placed in a glasshouse under controlled conditions (at 24/18° C. or 20/16° C., day/night; 16 h light; 65% humidity). After spray application the plants were then grown in a glasshouse under the same conditions and watered twice daily. After 15 d for post-emergence and 20 DAA for pre-emergence the test was evaluated (100=total damage to plant; 0=no damage to plant).
smiles,measurement,setting,value
CN1CC(c2cc(C(F)(F)F)n(C)n2)C(C(=O)Nc2ccc(F)cc2F)C1=O (racemic) [Compound 6],"damage to plant, ALOMY","rate 15, 20 DAA",0
same,"damage to plant, AVEFA","rate 15, 20 DAA",0
same,"damage to plant, BEAVA","rate 15, 20 DAA",0
same,"damage to plant, BROTE","rate 15, 20 DAA",0
same,"damage to plant, BRSNN","rate 15, 20 DAA",0
same,"damage to plant, CHEAL","rate 15, 20 DAA",0
same,"damage to plant, GALAP","rate 15, 20 DAA",0
same,"damage to plant, HORVW","rate 15, 20 DAA",0
same,"damage to plant, KCHSC","rate 15, 20 DAA",0
same,"damage to plant, LOLPE","rate 15, 20 DAA",0
same,"damage to plant, POAAN","rate 15, 20 DAA",0
same,"damage to plant, POLCO","rate 15, 20 DAA",0
same,"damage to plant, SINAR","rate 15, 20 DAA",0
same,"damage to plant, STEME","rate 15, 20 DAA",0
same,"damage to plant, VERPE","rate 15, 20 DAA",0
same,"damage to plant, ALOMY","rate 30, 20 DAA",0
same,"damage to plant, AVEFA","rate 30, 20 DAA",0
same,"damage to plant, BEAVA","rate 30, 20 DAA",0
same,"damage to plant, BROTE","rate 30, 20 DAA",0
same,"damage to plant, BRSNN","rate 30, 20 DAA",0
same,"damage to plant, CHEAL","rate 30, 20 DAA",0
same,"damage to plant, GALAP","rate 30, 20 DAA",0
same,"damage to plant, HORVW","rate 30, 20 DAA",0
same,"damage to plant, KCHSC","rate 30, 20 DAA",0
same,"damage to plant, LOLPE","rate 30, 20 DAA",0
same,"damage to plant, POAAN","rate 30, 20 DAA",0
same,"damage to plant, POLCO","rate 30, 20 DAA",0
same,"damage to plant, SINAR","rate 30, 20 DAA",0
same,"damage to plant, STEME","rate 30, 20 DAA",0
same,"damage to plant, VERPE","rate 30, 20 DAA",0
same,"damage to plant, ALOMY","rate 60, 20 DAA",0
same,"damage to plant, AVEFA","rate 60, 20 DAA",0
same,"damage to plant, BEAVA","rate 60, 20 DAA",0
same,"damage to plant, BROTE","rate 60, 20 DAA",0
same,"damage to plant, BRSNN","rate 60, 20 DAA",0
same,"damage to plant, CHEAL","rate 60, 20 DAA",0
same,"damage to plant, GALAP","rate 60, 20 DAA",0
same,"damage to plant, HORVW","rate 60, 20 DAA",0
same,"damage to plant, KCHSC","rate 60, 20 DAA",0
same,"damage to plant, LOLPE","rate 60, 20 DAA",0
same,"damage to plant, POAAN","rate 60, 20 DAA",0
same,"damage to plant, POLCO","rate 60, 20 DAA",0
same,"damage to plant, SINAR","rate 60, 20 DAA",0
same,"damage to plant, STEME","rate 60, 20 DAA",0
same,"damage to plant, VERPE","rate 60, 20 DAA",0
same,"damage to plant, ALOMY","rate 130, 20 DAA",0
same,"damage to plant, AVEFA","rate 130, 20 DAA",0
same,"damage to plant, BEAVA","rate 130, 20 DAA",0
same,"damage to plant, BROTE","rate 130, 20 DAA",0
same,"damage to plant, BRSNN","rate 130, 20 DAA",0
same,"damage to plant, CHEAL","rate 130, 20 DAA",0
same,"damage to plant, GALAP","rate 130, 20 DAA",0
same,"damage to plant, HORVW","rate 130, 20 DAA",0
same,"damage to plant, KCHSC","rate 130, 20 DAA",0
same,"damage to plant, LOLPE","rate 130, 20 DAA",0
same,"damage to plant, POAAN","rate 130, 20 DAA",10
same,"damage to plant, POLCO","rate 130, 20 DAA",0
same,"damage to plant, SINAR","rate 130, 20 DAA",0
same,"damage to plant, STEME","rate 130, 20 DAA",0
same,"damage to plant, VERPE","rate 130, 20 DAA",0
same,"damage to plant, ALOMY","rate 250, 20 DAA",0
same,"damage to plant, AVEFA","rate 250, 20 DAA",0
same,"damage to plant, BEAVA","rate 250, 20 DAA",0
same,"damage to plant, BROTE","rate 250, 20 DAA",0
same,"damage to plant, BRSNN","rate 250, 20 DAA",0
same,"damage to plant, CHEAL","rate 250, 20 DAA",10
same,"damage to plant, GALAP","rate 250, 20 DAA",10
same,"damage to plant, HORVW","rate 250, 20 DAA",10
same,"damage to plant, KCHSC","rate 250, 20 DAA",0
same,"damage to plant, LOLPE","rate 250, 20 DAA",20
same,"damage to plant, POAAN","rate 250, 20 DAA",20
same,"damage to plant, POLCO","rate 250, 20 DAA",0
same,"damage to plant, SINAR","rate 250, 20 DAA",0
same,"damage to plant, STEME","rate 250, 20 DAA",10
same,"damage to plant, VERPE","rate 250, 20 DAA",10
same,"damage to plant, ALOMY","rate 500, 20 DAA",40
same,"damage to plant, AVEFA","rate 500, 20 DAA",20
same,"damage to plant, BEAVA","rate 500, 20 DAA",0
same,"damage to plant, BROTE","rate 500, 20 DAA",0
same,"damage to plant, BRSNN","rate 500, 20 DAA",0
same,"damage to plant, CHEAL","rate 500, 20 DAA",20
same,"damage to plant, GALAP","rate 500, 20 DAA",20
same,"damage to plant, HORVW","rate 500, 20 DAA",20
same,"damage to plant, KCHSC","rate 500, 20 DAA",10
same,"damage to plant, LOLPE","rate 500, 20 DAA",30
same,"damage to plant, POAAN","rate 500, 20 DAA",70
same,"damage to plant, POLCO","rate 500, 20 DAA",0
same,"damage to plant, SINAR","rate 500, 20 DAA",10
same,"damage to plant, STEME","rate 500, 20 DAA",10
same,"damage to plant, VERPE","rate 500, 20 DAA",20
